Where two headings read alike, the source gives them in different places.
What was measured:
human CA-IX = molecular target: T1, human CA-IX (Homo sapiens, UniProt Q16790); assay: Surface Plasmon Resonance (SPR) binding kinetics to recombinant human CA-IX (Biacore 8K, single-cycle kinetics, 1:1 binding model)
T1 construct: purchased Acro CA9-H82E3
Outline: (§1)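 At 25° C, compound was injected at nine concentrations from 100 to 0.39 nM (PBS-P+ pH 7.4, 1% DMSO) over streptavidin-captured recombinant human CA-IX or CA-XII (1200-1800 RU). Association 120 s, dissociation 1200 s, single-cycle format; association and dissociation constants from 1:1 kinetic fits.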

human CA-XII = molecular target: T2, human CA-XII (Homo sapiens, UniProt O43570); assay: Surface Plasmon Resonance (SPR) binding kinetics to recombinant human CA-XII (Biacore 8K, single-cycle kinetics, 1:1 binding model)
T2 construct: purchased Creative BioMart CA12-261H
T2 sequence (O43570 25-354): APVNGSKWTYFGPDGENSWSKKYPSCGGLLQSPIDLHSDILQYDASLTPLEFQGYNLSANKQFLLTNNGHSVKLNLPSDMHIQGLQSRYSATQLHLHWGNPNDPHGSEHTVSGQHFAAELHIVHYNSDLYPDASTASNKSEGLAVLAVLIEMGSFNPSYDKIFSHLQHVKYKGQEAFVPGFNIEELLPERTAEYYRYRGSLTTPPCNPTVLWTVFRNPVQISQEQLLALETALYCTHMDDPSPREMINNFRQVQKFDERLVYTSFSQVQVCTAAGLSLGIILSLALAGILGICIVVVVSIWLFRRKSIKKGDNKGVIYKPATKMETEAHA
Outline: as §1

[1] = Chelated Metal: Lu-175; SPR, 25° C., pH 7.4; read-out: CAIX KD
[2] = Chelated Metal: Lu-175, 25° C., pH 7.4, read-out: CAXII KD
[3] = read-out: CAIX KD; Chelated Metal: Lu-175; SPR, 25° C., pH 7.4
[4] = read-out: CAXII KD, Chelated Metal: Lu-175, 25° C., pH 7.4

Compound	Kd (human CA-IX; [1]) [nM]	Kd (human CA-XII; [2]) [nM]	other results
CC(CCC(=O)N[C@@H](CC(=O)N[C@@H](CC(=O)N[C@@H](CCCCn1cc(C23CCC(C(=O)Nc4nnc(S(N)(=O)=O)s4)(CC2)C3)nn1)C(=O)NCCOCCNC(=O)CCC(C(=O)O)N1CCN(CC(=O)O)CCN(CC(=O)O)CCN(CC(=O)O)CC1)C(=O)O)C(=O)O)(c1ccc(O)cc1)c1ccc(O)cc1.[Lu+3] (stereo partly shown) [Compound 100.15]	< 1	< 1	–
CC(CCC(=O)N[C@@H](CC(=O)N[C@@H](CC(=O)N1CCN(C(=O)OCCOCCNC(=O)CN2CCN(CC(=O)O)CCN(CC(=O)O)CCN(CC(=O)O)CC2)C[C@@H]1CCCCn1cc(CCCC(=O)Nc2nnc(S(N)(=O)=O)s2)nn1)C(=O)O)C(=O)O)(c1ccc(O)cc1)c1ccc(O)cc1.[Lu+3] [Compound 124]	–	–	Kd (human CA-IX; [3]): 2.5 to 10 nM; Kd (human CA-XII; [4]): 2.5 to 10 nM
CC(CCC(=O)N[C@@H](CC(=O)N[C@@H](CC(=O)N[C@@H](CCCCn1cc(C23CCC(C(=O)Nc4nnc(S(N)(=O)=O)s4)(CC2)C3)nn1)C(=O)NCCOCCOCCNC(=O)CN1CCN(CC(=O)O)CCN(CC(=O)O)CCN(CC(=O)O)CC1)C(=O)O)C(=O)O)(c1ccc(O)cc1)c1ccc(O)cc1.[Lu+3] [Compound 100.1]	< 1	1 to 2.5	–
NS(=O)(=O)c1nnc(NC(=O)C23CC(c4cn(CCNC(=O)[C@@H]5CN(C(=O)CN6CCN(CC(=O)O)CCN(CC(=O)O)CCN(CC(=O)O)CC6)CCN5C(=O)C[C@H](NC(=O)C[C@H](NC(=O)CCCc5ccc(I)cc5)C(=O)O)C(=O)O)nn4)(C2)C3)s1.[Lu+3] [Compound 109.14]	< 1	2.5 to 10	–
NS(=O)(=O)c1nnc(NC(=O)C23CC(c4cn(CCNC(=O)[C@H]5CN(C(=O)CN6CCN(CC(=O)O)CCN(CC(=O)O)CCN(CC(=O)O)CC6)CCN5C(=O)CC[C@H](NC(=O)Cc5n[nH]c6ccccc56)C(=O)O)nn4)(C2)C3)s1.[Lu+3] [Compound 107.16]	1 to 2.5	2.5 to 10	–
NS(=O)(=O)c1nnc(NC(=O)C23CC(c4cn(CCNC(=O)[C@@H]5CN(C(=O)CN6CCN(CC(=O)O)CCN(CC(=O)O)CC6)CCN5C(=O)C[C@H](NC(=O)C[C@H](NC(=O)CC5CC6(CCC6)C5)C(=O)O)C(=O)O)nn4)(C2)C3)s1.[Cu+2] [Compound 126.5]	–	–	Kd (human CA-IX; Chelated Metal: Cu (cold); SPR, 25° C., pH 7.4; read-out: CAIX KD): < 1 nM; Kd (human CA-XII; Chelated Metal: Cu (cold), 25° C., pH 7.4, read-out: CAXII KD): 1 to 2.5 nM
CC(CCC(=O)N[C@@H](CC(=O)N[C@@H](CC(=O)N[C@@H](CCCCN1CCN(c2ccc(C(=O)Nc3nnc(S(N)(=O)=O)s3)cc2)CC1)C(=O)NCCOCCOCCNC(=O)CN1CCN(CC(=O)O)CCN(CC(=O)O)CCN(CC(=O)O)CC1)C(=O)O)C(=O)O)(c1ccc(O)cc1)c1ccc(O)cc1.[Lu+3] [Compound 121]	–	–	Kd (human CA-IX; [3]): < 1 nM; Kd (human CA-XII; [4]): > 10 nM
CC(CCC(=O)N[C@@H](CC(=O)N[C@@H](CC(=O)N1CCN(C(=O)CN2CCN(CC(=O)O)CCN(CC(=O)O)CCN(CC(=O)O)CC2)C[C@H]1C(=O)NCC(=O)N1CCC2(CC1)CC(C(=O)Nc1nnc(S(N)(=O)=O)s1)C2)C(=O)O)C(=O)O)(c1ccc(O)cc1)c1ccc(O)cc1.[Lu+3] [Compound 119]	–	–	Kd (human CA-IX; [3]): 2.5 to 10 nM; Kd (human CA-XII; [4]): > 10 nM
NS(=O)(=O)c1nnc(NC(=O)C23CC(c4cn(CCNC(=O)[C@@H]5CN(C(=O)CN6CCN(CC(=O)O)CCN(CC(=O)O)CCN(CC(=O)O)CC6)CCN5C(=O)C[C@H](NC(=O)C[C@H](NC(=O)c5ccc(C6CC6)cn5)C(=O)O)C(=O)O)nn4)(C2)C3)s1.[Lu+3] [Compound 109.19]	< 1	1 to 2.5	–
CC(CCCC(=O)N1CCC(C(N)=O)(C(=O)NCC(=O)NC2(C(=O)NCCn3nnc(C45CC(C(=O)Nc6nnc(S(N)(=O)=O)s6)(C4)C5)c3C(N)=O)CCN(C(=O)CN3CCN(CC(=O)O)CCN(CC(=O)O)CCN(CC(=O)O)CC3)CC2)CC1)(c1ccc(O)cc1)c1ccc(O)cc1.[Lu+3] [Compound 136]	–	–	Kd (human CA-IX; [3]): < 1 nM; Kd (human CA-XII; [4]): > 10 nM
CC[C@H]1CN(CC(=O)O)[C@@H](CC)CN(CC(=O)N2CCN(C(=O)C[C@H](NC(=O)C[C@H](NC(=O)CCC(C)(c3ccc(O)cc3)c3ccc(O)cc3)C(=O)O)C(=O)O)[C@H](C(=O)NCCn3cc(C45CC(C(=O)Nc6nnc(S(N)(=O)=O)s6)(C4)C5)nn3)C2)[C@@H](CC)CN(CC(=O)O)[C@@H](CC)CN1CC(=O)O.[Lu+3] [Compound 128]	< 1	> 10	–
Cc1cc(C2CC2)ccc1C(=O)N[C@@H](CC(=O)N[C@@H](CC(=O)N1CCN(C(=O)CN2CCN(CC(=O)O)CCN(CC(=O)O)CCN(CC(=O)O)CC2)C[C@H]1C(=O)NCCn1cc(C23CC(C(=O)Nc4nnc(S(N)(=O)=O)s4)(C2)C3)nn1)C(=O)O)C(=O)O.[Lu+3] [Compound 109.30]	< 1	2.5 to 10	–
CC(CCC(=O)N[C@@H](CC(=O)N[C@@H](CC(=O)N[C@@H](CCCCN1CCN(c2ccc(C(=O)Nc3nnc(S(N)(=O)=O)s3)cc2)CC1)C(=O)NCCOCCOCCNC(=O)CN1CCN(CC(=O)O)CCN(CC(=O)O)CCN(CC(=O)O)CC1)C(=O)O)C(=O)O)(c1ccc(O)cc1)c1ccc(O)cc1.[Lu+3] [Compound 121.1]	1 to 2.5	> 10	–
CC(CCC(=O)N[C@@H](CC(=O)N[C@@H](CC(=O)N1CCN(C(=O)CN2CCN(CC(=O)O)CCN(CC(=O)O)CCN(CC(=O)O)CC2)C[C@H]1C(=O)NCCn1cc(-c2ccc(-c3cn4nc(S(N)(=O)=O)sc4n3)cc2)nn1)C(=O)O)C(=O)O)(c1ccc(O)cc1)c1ccc(O)cc1.[Lu+3] [Compound 107.28]	< 1	< 1	–

From patent US20260325685A1, “Radiopharmaceutical Compositions Targeting Carbonic Anhydrase IX and Uses Thereof” (RayzeBio, Inc., priority 2023, published 2026)
